Read-outs that look alike come from different tables or passages of the source.
Legend:
[1] = Water solubility of cyclocreatine; type: physicochemical; details: physiologically relevant zwitterion salt
Method: Therefore, sufficient drug is available in the gut lumen due to good solubility, but an absorptive transporter will be necessary to overcome the poor permeability characteristics of this compound. For effective therapy, it is necessary to deliver cyclocreatine effectively in sufficient quantities into the systemic blood stream. […] Moreover, the in vivo fate of a drug given by a particular administration route is determined by both the physicochemical properties of drug and the anatomical and physiological characteristics of the body. Most conventional drugs, once reaching the blood circulation, distribute freely throughout the body and show relatively even tissue distribution due to their low molecular weight.

[2] = organic solvents administered parenterally; cited from earlier work
[3] = system: human peripheral neutrophils; details: FIG. 3
Text: (§1) For these studies, a standard Neuroprobe chemotaxis system (Gaithersburg, Md.) and human peripheral neutrophils as indicator cells were used.

[4] = system: Nourin; assay: Chemotactic activity of Nourin in supernatants of H1N1 (PR8) infected MDCK cells; type: cell-based; details: 5×10^−6 M Nourexin-4, all time points 1-24 hours, FIG. 5
[5] = system: Nourin; assay: Neutrophil chemotaxis induced by Nourin; type: cell-based; details: data not provided in graphical form
[6] = system: Nourin; assay: Chemotactic activity in serum of H1N1 (WSN) influenza infected mice, human PMNs as indicator cells; type: cell-based, mouse; details: 5×10^−6 M Nourexin-4; serum diluted 1/7, 6 hours post H1N1 (WSN) infection; FIG. 6
[7] = system: human peripheral neutrophils; details: FIG. 2
Text: as §1

## NC1=NCCN1CC(=O)O [cyclocreatine]
[1]
  water solubility: relatively highly water-soluble

## CC(O)CO (stereo not shown) [propylene glycol]
[2]
  LD50: 5.7%

## C[S+](C)[O-] [DMSO, dimethylsulfoxide]
[2]
  LD50: 5.1%

## C/C=C/C[C@@H](C)[C@@H](O)[C@H]1C(=O)N[C@@H](CC)C(=O)N(C)CC(=O)N(C)[C@@H](CC(C)C)C(=O)N[C@@H](C(C)C)C(=O)N(C)[C@@H](CC(C)C)C(=O)N[C@@H](C)C(=O)N[C@H](C)C(=O)N(C)[C@@H](CC(C)C)C(=O)N(C)[C@@H](CC(C)C)C(=O)N(C)[C@H](C(C)C)C(=O)N1C [Nourexin-4, Cyclosporine H]
[3]; Nourexin-4 at 5×10^−4 M
  inhibition of neutrophil chemotaxis induced by S. aureus-derived PSM3a: completely blocked
[3]; Nourexin-4 at 5×10^−5 M
  inhibition of neutrophil chemotaxis induced by S. aureus-derived PSM3a: partially blocked
[4]; 1/10 diluted supernatant
  inhibition of chemotactic activity of H1N1 infected MDCK supernatant: dramatic loss of chemotactic activity
[4]; undiluted supernatant
  inhibition of chemotactic activity of H1N1 infected MDCK supernatant: dramatic loss of chemotactic activity
[5]
  inhibition of neutrophil chemotaxis induced by Nourin: significantly inhibited
[6]
  inhibition of virus induced LCF activity in mouse serum: majority of this virus induced LCF activity is clearly inhibited

## t-Boc-FLFLF [Nourexin-1]
[5]
  inhibition of neutrophil chemotaxis induced by Nourin: significantly inhibited

## formyl-Methionine-Leucine-Phenylalanine [f-MLP]
[7]
  neutrophil chemotactic activity induced in vitro: strong neutrophil chemotactic activity

## phenol-soluble modulin 3a peptide [PSM3a, reference compound]
[3]
  neutrophil chemotactic activity induced in vitro: strong neutrophil chemotactic activity

## CCO [ethanol]
[2]
  LD50: 21%

— patent US8333987B2 (priority 2008, dated 2012)
